These results are taken from patent publication US11266743B2, “Peptide compositions and methods of use thereof” (priority 2017, dated 2022).

Square brackets hold non-standard residues; d marks the D form. Ends that are not written are not given here.

Common to all, as to assay type: cell-based
Series [1] concerns Hela cells stably transfected with mCherry and GFP1-10. As to the kind of experiment: Split GFP assay (GFP-11 delivery). The conditions noted are these: for GFP fluorescence above background / GFP fluorescence level: 10 μM; for GFP-11 delivery: all concentrations and temperatures studied. How it is done:
To test the ability of CPPs to deliver other cargoes, specifically a protease-sensitive peptide cargo, we modified the well-known split-GFP assay. CPPs were tested for the ability to deliver the polar 16-residue GFP-11 peptide across the membrane barrier. This peptide rescues the fluorescence of the cytosolic endogenous, non-fluorescent GFP1-10 protein. Here, we stably transfected Hela cells with a plasmid containing the full length mCherry and the non-fluorescent GFP1-10. Following incubation with CPP-GFP-11 constructs at multiple concentrations and temperatures for 30 minutes in serum free DMEM, cells were analyzed by flow cytometry for mCherry and GFP fluorescence (FIG. 17). Live cells expressing mCherry (˜50% of the total cells) were gated and their GFP fluorescence was analyzed. Unlike the luciferase splice correction assay where a single corrected mRNA transcript serves as template for many molecules of functional luciferase, the split GFP assay is stoichiometric; a single GFP-11 peptide can bind to a single GFP1-10 protein producing a finite fluorescent response.
Hela cells were transfected with p_mCherry-GFP1-10 (Addgene plasmid #78591) using LIPOFECTAMINE® 3000 (ThermoFisher). Single mCherry positive cells were sorted into 96-well plates using a BD™ FACSARIA™ cell sorter and colonies were maintained under G418 selection at […]. Stably transfected cells were plated in 12-well plates at 100,000 cells/well and grown overnight in complete DMEM. Cells were washed in PBS and incubated in 500 μl of CPP-GFP-11 solution at variable concentrations at 23° C. and 37° C. for 30 minutes. The CPP-GFP-11 solution was aspirated and 100 μl of 0.025% trypsin solution was added to each well. After detachment, cells were suspended in 500 μL of PBS+2% FBS and 20 mM HEPES. Cells were analyzed using a BD™ LSRII flow cytometer. Cells displaying a normal morphology were gated and first analyzed for mCherry fluorescence using the 543 nM laser. mCherry+ cells were used to generate a histogram of GFP fluorescence measured with the 488 nM laser.

For another series, the system named is Hela pTRE-LucIVS2 cells. Briefly: ALAMARBLUE toxicity assay of CPP-PNA705. The conditions noted are these: 10 μM CPP-PNA705 conjugate, after 24 hours. As for the experimental part: CPP-PNA705 cytotoxicity was assessed using several methods known in the art. A Lactate Dehydrogenase (LDH) assay (FIG. 5A) measured the acute cytotoxicity and detects LDH released by cells because of membrane damage resulting from exposure to the CPPs. An ALAMARBLUE® assay (FIG. 5B) and a Bicinchoninic Acid (BCA) Assay (FIG. 5C) both measure the impact of exposure after 24 hours. In the ALAMARBLUE®, assay some reduction in metabolic activity was detected in Hela705 cells treated with 20 μM CPP-PNA705 concentrations for 1 hour.
Hela pTRE-LucIVS2 cells were plated in 96-well plates at 10,000 cells/well. After 24 hours, cells were treated with CPP constructs for 1 Hr in sfDMEM at 37° C., washed in PBS, and allowed to recover for 24 hours in 100 μl complete media. 10 μl ALAMARBLUE® (ThermoFisher) was added to each well and cells were incubated fo4r 2 Hrs at 37° C. Reduction of ALAMARBLUE® was determined by fluorescence at […].
Background: Alamar Blue is a resazurin reagent that responds to reducing activity.

The test system of series [2] is HeLa, RAW264.7, HepG2, and MCF-7 cells. Briefly: TAMRA delivery assay (flow cytometry, confocal microscopy). The conditions noted are these: 0.5 μM CPP-TA + 4.5 μM CPP-C, 30 minutes at 4° C., 22° C., or 37° C. As for the experimental part: To determine the effect of the PNA cargo on delivery, we labeled CPPs, lacking the PNA705 cargo, with the fluorophore TAMRA on a C-terminal cysteine residue (CPP-TA) and measured delivery to multiple cell types. TAMRA-labelled CPPs, mixed with unlabeled CPPs at a 1:10 ratio in serum-free DMEM for a final concentration of 5 μM total peptide, was added to HeLa, RAW264.7, HepG2, and MCF-7 cells in 12-well cell culture plates and incubated for 30 minutes at 4° C., 22° C., or 37° C. prior to flow cytometric analysis (FIGS. 9-16). […] Delivery of TAMRA was verified by confocal microscopy for each cell type.
Hela, RAW264.7, HCT116, HepG2, and MCF-7 cells were plated in 12-well plates at 100,000 cells/well. After 24 hours, cells were gently washed in PBS, topped with 500 μl of CPP-TA solution containing 0.5 μM CPP-TA+4.5 uM CPP-C in sfDMEM without phenol red, and incubated for 30 min at either 4° C., 23° C., or 37° C. The incubation solution was aspirated and cells were treated with 100 μl 0.025% Trypsin for 3 minutes at 23° C. 500 μl DMEM containing 2% FBS, 125 nM Sytox Green, and 20 mM HEPES was used to suspend the cells. Cells were transferred to a filter-topped flow cytometry tube and analyzed on a BD™ LSR II flow cytometer. Cells displaying a normal morphology were gated and first analyzed for GFP fluorescence using the 488 nM laser. GFP negative cells were used to generate a histogram of TAMRA fluorescence, measured with the 543 nM laser.
Cells were treated as described above for the TAMRA delivery assay and immediately imaged to avoid artifacts resulting from fixation. The distribution of TAMRA and Sytox Green was analyzed using a confocal scanning Nikon Eclipse Ti2 inverted microscope using a 40× oil-immersion objective. Sytox Green was excited using the 488 nM laser and TAMRA was excited using the 543 nM laser.
(In general: Flow cytometry measures light scatter and fluorescence of single cells or particles in a stream.)

The subject of the next series is S. aureus. As to the kind of experiment: Radial diffusion in the presence of RBCs. Further details: key: The ↑ represents the improvement in performance that would be desired for a viable in vivo antimicrobial peptide; ↓: The symbol represents a regression in desired behavior; *=p<0.05; **=p<0.01; ***=p<0.001. The conditions noted are these: change versus parent sequence; paired t-test. How it is done: Underlay agarose was prepared by adding 5 g of low EEO agarose and 0.03 g of TSB to 500 mL of 10 mM phosphate buffer (pH=7.4). Overlay agarose was prepared by adding 5 g of low EEO agarose and 30 g of TSB to 500 mL of 10 mM phosphate buffer (pH=7.4). Both solutions were heated until the agarose melted and then were autoclaved. To a rectangular, one-well plate, 20 mL of underlay agarose, inoculated with 8×10^6 CFUs of bacteria, was added. A sterile, 96-well plate replicator from Sigma-Aldrich was set in the molten agarose and removed one the agarose solidified. Antibiotic was prepared at 4 times the final desired concentration. For the antibiotic standard, a serial dilution of 3:4 across a 96-well plate was performed followed by 1:4 dilution with PBS. Otherwise, the peptide was diluted to 20 μM with RBCs and/or serum to give between 2% (1×10^8 cells/mL) and 20% (1×10^9 cells/mL). Solutions were incubated with gentle shaking for 30 minutes at 37° C. […]. Overlay was added, and the plate was incubated upside down overnight. Surface growth was cleared, the plates were sterilized with 25% methanol and 5% acetic acid. Zones of inhibition were photographed and analyzed using ImageJ. (FIG. 21)
(§1) The engineered peptide sequences and their derivation from parent sequences is shown, along with the underlying hypothesis described for the first set of peptides (Table 4) and the second set (Table 5). We performed statistical testing for performance in antimicrobial assays in the presence and absence of RBCs, as well as for cytotoxicity. The broth dilution results were tested using a two sample t-test (N=6-22). The radial diffusion results were tested using a paired t-test (N=4). The cytotoxicity results were tested using a paired t-test (N=3). The ↑ represents the improvement in performance that would be desired for a viable in vivo antimicrobial peptide. This corresponds to a decrease in MIC values (increased potency) and decreased cytotoxicity. The symbol represents a regression in desired behavior. (*=p<0.05, **=p<0.01, ***=p<0.001).

The next series concerns human RBCs. Briefly: Hemolysis assay. Further details: key: The ↑ represents the improvement in performance that would be desired for a viable in vivo antimicrobial peptide; ↓: The symbol represents a regression in desired behavior; *=p<0.05; **=p<0.01; ***=p<0.001. The conditions noted are these: change versus parent sequence; ↑ = improvement (decreased cytotoxicity); paired t-test. As for the experimental part:
Peptide was serially diluted in PBS starting at a concentration of 100 μM. The final volume of each peptide in each well was 50 μL. To each well, 50 μL of RBCs in PBS at 2×10^8 cells/mL was added. As a positive lysis control, 1% TRITON™ was used. The mixtures were incubated at 37° C. for 1 hour, after which they were centrifuged at 1000×g for 5 minutes. After centrifugation, 10 μL of supernatant was transferred to 90 μL of DI H2O in a fresh 96-well plate. The absorbance of released hemoglobin at 410 nm was recorded and the fractional hemolysis was calculated based on the 100% and 0% lysis controls. (FIGS. 22, 23, and 26)
as §1

For “CPP-1(D)-GFP-11: D-amino acid version of CPP-1 attached to normal L-amino acid GFP-11 ([dR][dK][dK][dR][dW][dF][dR][dR][dR][dR][dP][dK][dW][dK][dK]RDHMVLHEYVNAAGIT)”, the “D-form CPP versus L-form CPP, GFP-11 delivery” value in series [1] was “outperformed CPP-1-GFP-11 under all other conditions”.
For the substance “CPP-1-GFP-11: CPP-1 linked to the polar 16-residue GFP-11 peptide (SEQ ID NO: 12) (RKKRWFRRRRPKWKKRDHMVLHEYVNAAGIT)”, the entries for the “GFP fluorescence above background” value in series [1] (37° C.) and in series [1] (room temperature) were 44% and 72%, respectively.
With “CPP-2-GFP-11: CPP-2 linked to the 16-residue GFP-11 peptide (SEQ ID NO: 12) (GRKKRWFRRRRMKWKKRDHMVLHEYVNAAGIT)”, the “GFP fluorescence level” value in series [1] is given as “background fluorescence levels”.
Take “CPP-3-GFP-11: CPP-3 linked to the 16-residue GFP-11 peptide (SEQ ID NO: 12) (RIKRRFRRLRPKWKKRDHMVLHEYVNAAGIT)”: in series [1], the “GFP fluorescence level” value is listed as “background fluorescence levels”.
GRKKRWFRRRRMKWKK [CPP-2]: in the series on Hela pTRE-LucIVS2 cells, the “reduction in metabolic activity” value was 10%. Besides, the “TAMRA delivery (words, rank order)” value in series [2] is given as “CPP-2»CPP-3=CPP-1>CPP-4>TAT=penetratin”. Further, the “GFP-11 delivery” value in series [1] was “deliver GFP-11 to more cells than Tat and penetratin”.
As for KKGWAKKLAFAFGKK [D-KON], in the series with S. aureus, the “Radial Diffusion vs. S. aureus” value was “↓Radial diffusion vs”.
In the case of RIKRRFRRLRPKWKK [CPP-3], in the series on Hela pTRE-LucIVS2 cells, the “reduction in metabolic activity” value was “little effect”. Further, the “TAMRA delivery (words, rank order)” value in series [2] is recorded as “CPP-2»CPP-3=CPP-1>CPP-4>TAT=penetratin”. In series [1], the “GFP-11 delivery” value is “deliver GFP-11 to more cells than Tat and penetratin”.
With RRGWAFRRALAYGRR [D-GNS2], the Hemolysis entry with human RBCs is “↓Hemolysis**”. For the same substance, the “Radial Diffusion vs. S. aureus” value in the series on S. aureus is “↑Radial diffusion vs”.
Consider RRGWALRLVLAYGRR [RAT3], for which, in the series on human RBCs, the Hemolysis entry is listed as “↓Hemolysis*”.
For the substance RRGWARRLAFAFAFGRR [RAT6], the Hemolysis result in the series on human RBCs is reported as “↓Hemolysis*”.
On to RRGWARRLAFAFGRR [D-RAT4], for which the “Radial Diffusion vs. S. aureus” value in the series on S. aureus is “↑Radial Diffusion vs”.
RRGWARRLAFAFGRR [RAT4]: the Hemolysis entry with human RBCs is “↑Hemolysis*”. The “Radial Diffusion vs. S. aureus” value in the series with S. aureus was “↑Radial Diffusion vs”.
As to RRGWARRLAFGRR [RAT7], the Hemolysis result in the series on human RBCs is “↑Hemolysis**”.
Turning to RRGWARRLFFAYGRR [D-DBS1], the Hemolysis entry with human RBCs was “↓Hemolysis*”. Besides, the “Radial Diffusion vs. S. aureus” value in the series with S. aureus is given as “↑Radial diffusion vs”.
Consider RRGWARRLRLAFAFGRR [RAT5], for which the Hemolysis result in the series on human RBCs was “↓Hemolysis*”. The “Radial Diffusion vs. S. aureus” value in the series with S. aureus is “↑Radial Diffusion vs”.
For RRWARRLFFAYRR [RAT1], in the series on S. aureus, the “Radial Diffusion vs. S. aureus” value is recorded as “↑Radial Diffusion vs”.
As to RRWNLALTLTYYRR [RAT2], in the series with human RBCs, the Hemolysis entry is listed as “↓Hemolysis*”.
Regarding “Tat(D)-GFP-11: D-amino acid version of Tat attached to normal L-amino acid GFP-11 (G[dR][dK][dK][dR][dR][dQ][dR][dR][dR][dP][dP][dQ]RDHMVLHEYVNAAGIT) [reference compound]”, the “GFP fluorescence” value in series [1] (concentrations lower than 40 μM) was “just above background”.
